Results: PubChem BioAssay (NCI)
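Compound exposure: 48 hours, 5 concentrations, 96-well plates. Abbreviation: GI50, concentration required for 50% inhibition of growth. Definition used: TGI = concentration required for complete inhibition of growth.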

Key:
Assay in all cases: growth of human tumour cells (NCI), 48 h
SK-MEL-5 melanoma = system: SK-MEL-5 melanoma
OVCAR-3 ovarian = system: OVCAR-3 ovarian
UACC-257 melanoma = system: UACC-257 melanoma
HT29 colon = system: HT29 colon
HOP-92 NSCLC = system: HOP-92 NSCLC
NCI-H522 lung = system: NCI-H522 lung
SF-539 CNS = system: SF-539 CNS
SK-MEL-28 melanoma = system: SK-MEL-28 melanoma
LOX IMVI melanoma = system: LOX IMVI melanoma
MALME-3M melanoma = system: MALME-3M melanoma
HCT-15 colon = system: HCT-15 colon
SF-295 CNS = system: SF-295 CNS
IGROV1 ovarian = system: IGROV1 ovarian
SF-268 CNS = system: SF-268 CNS
NCI/ADR-RES ovarian = system: NCI/ADR-RES ovarian
KM12 colon = system: KM12 colon
BT-549 breast = system: BT-549 breast
T-47D breast = system: T-47D breast
SR leukemia = system: SR leukemia
HL-60(TB) leukemia = system: HL-60(TB) leukemia
SW-620 colon = system: SW-620 colon
PC-3 prostate = system: PC-3 prostate
786-0 renal = system: 786-0 renal
ACHN renal = system: ACHN renal
CAKI-1 renal = system: CAKI-1 renal
NCI-H226 lung = system: NCI-H226 lung
RXF 393 renal = system: RXF 393 renal
EKVX NSCLC = system: EKVX NSCLC
RPMI-8226 leukemia = system: RPMI-8226 leukemia
SN12C renal = system: SN12C renal
CCRF-CEM leukemia = system: CCRF-CEM leukemia
TK-10 renal = system: TK-10 renal
SK-MEL-2 melanoma = system: SK-MEL-2 melanoma
DU-145 prostate = system: DU-145 prostate
SNB-19 CNS = system: SNB-19 CNS
K-562 leukemia = system: K-562 leukemia
OVCAR-8 ovarian = system: OVCAR-8 ovarian
SNB-75 CNS = system: SNB-75 CNS
NCI-H23 lung = system: NCI-H23 lung
MDA-MB-231 breast = system: MDA-MB-231 breast
NCI-H460 lung = system: NCI-H460 lung
HCT-116 colon = system: HCT-116 colon
HS 578T breast = system: HS 578T breast
HCC-2998 colon = system: HCC-2998 colon
OVCAR-5 ovarian = system: OVCAR-5 ovarian
MCF7 breast = system: MCF7 breast
MDA-MB-435 = system: MDA-MB-435
UACC-62 melanoma = system: UACC-62 melanoma
A549 NSCLC = system: A549 NSCLC
UO-31 renal = system: UO-31 renal
OVCAR-4 ovarian = system: OVCAR-4 ovarian
SK-OV-3 ovarian = system: SK-OV-3 ovarian
A498 renal = system: A498 renal
MOLT-4 leukemia = system: MOLT-4 leukemia
M14 melanoma = system: M14 melanoma

CCCCCC/C=C\CCCCCCCCCc1cc(O)cc(OC)c1O gave a GI50 (SK-MEL-5 melanoma) of 0.329 µM, a TGI (SK-MEL-5 melanoma) of 1.18 µM and a GI50 (OVCAR-3 ovarian) of 0.401 µM. For the same molecule, the TGI (OVCAR-3 ovarian) was 1.43 µM, the GI50 (UACC-257 melanoma) was 0.474 µM and the TGI (UACC-257 melanoma) was 2.92 µM. The GI50 (HT29 colon) was 0.353 µM, the TGI (HT29 colon) was 6.93 µM and the GI50 (HOP-92 NSCLC) was 0.234 µM. It also gave a TGI (HOP-92 NSCLC) of 0.767 µM, a GI50 (NCI-H522 lung) of 0.321 µM and a TGI (NCI-H522 lung) of 1.22 µM. The GI50 (SF-539 CNS) was 0.377 µM, the TGI (SF-539 CNS) was 1.51 µM and the GI50 (SK-MEL-28 melanoma) was 0.653 µM. The TGI (SK-MEL-28 melanoma) was 2.34 µM, the GI50 (LOX IMVI melanoma) was 0.339 µM and the TGI (LOX IMVI melanoma) was 1.21 µM. It also gave a GI50 (MALME-3M melanoma) of 0.444 µM, a TGI (MALME-3M melanoma) of 2.14 µM and a GI50 (HCT-15 colon) of 0.285 µM. It also gave a TGI (HCT-15 colon) of 1.32 µM, a GI50 (SF-295 CNS) of 0.304 µM and a TGI (SF-295 CNS) of 1.37 µM. It also gave a GI50 (IGROV1 ovarian) of 0.433 µM, a TGI (IGROV1 ovarian) of 1.64 µM and a GI50 (SF-268 CNS) of 0.441 µM. For the same molecule, the TGI (SF-268 CNS) was 1.69 µM, the GI50 (NCI/ADR-RES ovarian) was 0.311 µM and the TGI (NCI/ADR-RES ovarian) was 1.27 µM. The GI50 (KM12 colon) was 0.388 µM, the TGI (KM12 colon) was 2.3 µM and the GI50 (BT-549 breast) was 0.375 µM. It also gave a TGI (BT-549 breast) of 1.45 µM, a GI50 (T-47D breast) of 0.349 µM and a TGI (T-47D breast) of 1.93 µM. It also gave a GI50 (SR leukemia) of 0.344 µM, a TGI (SR leukemia) of 3.26 µM and a GI50 (HL-60(TB) leukemia) of 0.272 µM. For the same molecule, the TGI (HL-60(TB) leukemia) was 0.717 µM, the GI50 (SW-620 colon) was 0.371 µM and the TGI (SW-620 colon) was 1.81 µM. The GI50 (PC-3 prostate) was 0.308 µM, the TGI (PC-3 prostate) was 1.54 µM and the GI50 (786-0 renal) was 0.316 µM. The TGI (786-0 renal) was 1.57 µM, the GI50 (ACHN renal) was 0.318 µM and the TGI (ACHN renal) was 1.21 µM. It also gave a GI50 (CAKI-1 renal) of 0.497 µM, a TGI (CAKI-1 renal) of 1.82 µM and a GI50 (NCI-H226 lung) of 0.37 µM. For the same molecule, the TGI (NCI-H226 lung) was 1.49 µM, the GI50 (RXF 393 renal) was 0.32 µM and the TGI (RXF 393 renal) was 1.38 µM. The GI50 (EKVX NSCLC) was 0.335 µM, the TGI (EKVX NSCLC) was 1.74 µM and the GI50 (RPMI-8226 leukemia) was 0.219 µM. It also gave a GI50 (SN12C renal) of 0.31 µM, a TGI (SN12C renal) of 1.5 µM and a GI50 (CCRF-CEM leukemia) of 0.219 µM. It also gave a TGI (CCRF-CEM leukemia) of 1.29 µM, a GI50 (TK-10 renal) of 0.664 µM and a TGI (TK-10 renal) of 2.65 µM. It also gave a GI50 (SK-MEL-2 melanoma) of 0.494 µM, a TGI (SK-MEL-2 melanoma) of 2.41 µM and a GI50 (DU-145 prostate) of 0.575 µM. For the same molecule, the TGI (DU-145 prostate) was 15.2 µM, the GI50 (SNB-19 CNS) was 0.347 µM and the TGI (SNB-19 CNS) was 10.3 µM. For the same molecule, the GI50 (K-562 leukemia) was 0.298 µM, the TGI (K-562 leukemia) was 2.08 µM and the GI50 (OVCAR-8 ovarian) was 0.307 µM. It also gave a TGI (OVCAR-8 ovarian) of 6.5 µM, a GI50 (SNB-75 CNS) of 0.317 µM and a TGI (SNB-75 CNS) of 1.44 µM. It also gave a GI50 (NCI-H23 lung) of 0.348 µM, a TGI (NCI-H23 lung) of 1.29 µM and a GI50 (MDA-MB-231 breast) of 0.308 µM. For the same molecule, the TGI (MDA-MB-231 breast) was 0.978 µM, the GI50 (NCI-H460 lung) was 0.323 µM and the TGI (NCI-H460 lung) was 10.1 µM. The GI50 (HCT-116 colon) was 0.33 µM, the TGI (HCT-116 colon) was 1.25 µM and the GI50 (HS 578T breast) was 0.599 µM. The TGI (HS 578T breast) was 5.18 µM, the GI50 (HCC-2998 colon) was 0.633 µM and the TGI (HCC-2998 colon) was 4.34 µM. It also gave a GI50 (OVCAR-5 ovarian) of 0.402 µM, a TGI (OVCAR-5 ovarian) of 2.41 µM and a GI50 (MCF7 breast) of 0.292 µM. The TGI (MCF7 breast) was 2.49 µM, the GI50 (MDA-MB-435) was 0.363 µM and the TGI (MDA-MB-435) was 1.96 µM. For the same molecule, the GI50 (UACC-62 melanoma) was 0.396 µM, the TGI (UACC-62 melanoma) was 1.95 µM and the GI50 (A549 NSCLC) was 0.406 µM. For the same molecule, the TGI (A549 NSCLC) was 14.6 µM, the GI50 (UO-31 renal) was 0.321 µM and the TGI (UO-31 renal) was 1.22 µM. For the same molecule, the GI50 (OVCAR-4 ovarian) was 0.389 µM, the TGI (OVCAR-4 ovarian) was 1.69 µM and the GI50 (SK-OV-3 ovarian) was 0.402 µM. It also gave a TGI (SK-OV-3 ovarian) of 11.6 µM, a GI50 (A498 renal) of 0.33 µM and a TGI (A498 renal) of 2.07 µM. For the same molecule, the GI50 (MOLT-4 leukemia) was 0.333 µM, the TGI (MOLT-4 leukemia) was 1.86 µM and the GI50 (M14 melanoma) was 0.403 µM. For the same molecule, the TGI (M14 melanoma) was 3.65 µM.
